Read-outs that look alike come from different tables or passages of the source.

These results are taken from paper PMC7753922, “Effect of the anti-parasitic compounds pyrvinium pamoate and artemisinin in enzymatic and culture assays: Data on the search for new anti-echinococcal drugs” (Data in Brief, 2020).

Format in all cases: biochemical
Test [1] addresses T1, mitochondrial complex I (NADH-ubiquinone reductase; NADH-decyl rhodoquinone reductase) (Echinococcus multilocularis, UniProt Q9TE76).
T1 construct: gene ND1; native multi-subunit complex I in freeze-thawed enriched mitochondrial fraction of protoscoleces; not purified
The experiment in a line: spectrophotometric NADH-quinone reductase assay, mitochondrial fraction. To be noted: quinone acceptor decyl rhodoquinone (methods; table heads it NADH-ubiquinone reductase), 30 mM potassium phosphate, 1 mM MgCl2, pH 7.5, 25 °C. From the text: spectrophotometric NADH-quinone reductase assay, mitochondrial fraction on mitochondrial complex I (NADH-ubiquinone reductase; NADH-decyl rhodoquinone reductase)

For test [2], the target named is T2, mitochondrial complex II (succinate-quinone reductase, SQR) (Echinococcus multilocularis, UniProt A0A1Z4EAV8+A0A1Z4EAW8+A0A1Z4EAX0+A0A1Z4EAX1).
T2 construct: gene SDHB1; native complex II in freeze-thawed enriched mitochondrial fraction of protoscoleces; not purified
T2 sequence (A0A1Z4EAX0 21-272): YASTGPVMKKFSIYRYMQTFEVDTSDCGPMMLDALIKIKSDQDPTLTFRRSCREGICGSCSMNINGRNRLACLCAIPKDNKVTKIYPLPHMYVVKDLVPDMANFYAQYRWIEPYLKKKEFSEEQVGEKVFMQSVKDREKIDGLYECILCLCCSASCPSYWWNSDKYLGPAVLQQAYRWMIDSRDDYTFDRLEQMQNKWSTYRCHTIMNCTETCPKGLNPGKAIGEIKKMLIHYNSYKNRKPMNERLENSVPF
T2 sequence (A0A1Z4EAX1 53-194): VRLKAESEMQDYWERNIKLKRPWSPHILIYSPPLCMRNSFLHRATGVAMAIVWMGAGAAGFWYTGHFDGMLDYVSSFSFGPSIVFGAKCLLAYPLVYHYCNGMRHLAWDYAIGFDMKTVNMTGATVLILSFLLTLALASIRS
T2 sequence (A0A1Z4EAW8 47-153): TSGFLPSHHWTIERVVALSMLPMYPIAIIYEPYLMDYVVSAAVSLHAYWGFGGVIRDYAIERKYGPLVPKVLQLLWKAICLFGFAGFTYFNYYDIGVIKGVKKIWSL
T2 sequence (A0A1Z4EAV8 26-648): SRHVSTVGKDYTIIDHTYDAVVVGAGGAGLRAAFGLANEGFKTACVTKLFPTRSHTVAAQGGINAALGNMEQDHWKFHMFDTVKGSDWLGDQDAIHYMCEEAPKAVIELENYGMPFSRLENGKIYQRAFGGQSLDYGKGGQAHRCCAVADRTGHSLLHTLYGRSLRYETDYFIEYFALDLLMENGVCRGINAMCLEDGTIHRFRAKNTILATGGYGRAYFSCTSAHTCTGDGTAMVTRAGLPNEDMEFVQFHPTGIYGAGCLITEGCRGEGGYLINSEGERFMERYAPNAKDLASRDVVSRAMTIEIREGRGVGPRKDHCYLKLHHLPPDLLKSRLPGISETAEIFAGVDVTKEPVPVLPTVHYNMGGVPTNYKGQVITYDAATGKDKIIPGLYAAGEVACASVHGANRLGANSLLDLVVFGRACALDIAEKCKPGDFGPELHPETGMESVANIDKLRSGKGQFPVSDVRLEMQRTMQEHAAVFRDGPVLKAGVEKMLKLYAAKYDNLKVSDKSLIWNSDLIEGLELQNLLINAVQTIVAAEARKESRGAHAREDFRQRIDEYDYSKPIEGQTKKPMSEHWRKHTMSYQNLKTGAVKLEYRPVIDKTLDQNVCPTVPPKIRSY
The experiment in a line: spectrophotometric succinate-quinone reductase assay, mitochondrial fraction. As to conditions: 30 mM potassium phosphate, 1 mM MgCl2, pH 7.5, 25 °C. From the text: spectrophotometric succinate-quinone reductase assay, mitochondrial fraction on mitochondrial complex II (succinate-quinone reductase, SQR)

Test [3] concerns the target T3, succinate-cytochrome c reductase (mitochondrial complexes II and III) (Echinococcus multilocularis, UniProt Q9TE80).
T3 construct: gene Cytb; coupled activity of native complexes II and III in freeze-thawed enriched mitochondrial fraction of protoscoleces; not purified; with Succinate dehydrogenase [ubiquinone] flavoprotein subunit, mitochondrial; Succinate dehydrogenase [ubiquinone] iron-sulfur subunit, mitochondrial; Succinate dehydrogenase [ubiquinone] cytochrome b large subunit, mitochondrial; Succinate dehydrogenase [ubiquinone] cytochrome b small subunit, mitochondrial
Nature of the test: spectrophotometric succinate-cytochrome c reductase assay, mitochondrial fraction. To be noted: coupled complex II and III activity, 30 mM potassium phosphate, 1 mM MgCl2, pH 7.5, 25 °C. From the text: spectrophotometric succinate-cytochrome c reductase assay, mitochondrial fraction on succinate-cytochrome c reductase (mitochondrial complexes II and III)

Where [4] appears, read: read-out: Succinate-quinone reductase: SQR / (Complex II).
The mark [5] stands for this setting: read-out: NADH-ubiquinone reductase / (Complex I).

T1 sequence (Q9TE76 1-297): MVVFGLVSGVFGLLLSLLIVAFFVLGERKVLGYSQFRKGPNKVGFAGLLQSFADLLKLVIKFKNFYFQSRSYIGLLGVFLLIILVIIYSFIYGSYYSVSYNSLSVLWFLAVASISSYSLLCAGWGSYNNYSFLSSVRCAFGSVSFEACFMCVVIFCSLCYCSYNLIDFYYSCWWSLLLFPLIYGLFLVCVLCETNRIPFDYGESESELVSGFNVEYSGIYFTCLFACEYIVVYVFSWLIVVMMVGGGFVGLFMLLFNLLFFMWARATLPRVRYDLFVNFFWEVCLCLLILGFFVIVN
T1 sequence (A0A068Y9L9 30-218 partner): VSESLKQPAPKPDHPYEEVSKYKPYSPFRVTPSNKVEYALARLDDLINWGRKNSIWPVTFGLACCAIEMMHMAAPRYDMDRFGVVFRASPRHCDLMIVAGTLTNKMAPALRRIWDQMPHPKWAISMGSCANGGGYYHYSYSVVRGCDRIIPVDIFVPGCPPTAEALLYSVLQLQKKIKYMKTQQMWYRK
T1 sequence (A0A068YF50 31-207 partner): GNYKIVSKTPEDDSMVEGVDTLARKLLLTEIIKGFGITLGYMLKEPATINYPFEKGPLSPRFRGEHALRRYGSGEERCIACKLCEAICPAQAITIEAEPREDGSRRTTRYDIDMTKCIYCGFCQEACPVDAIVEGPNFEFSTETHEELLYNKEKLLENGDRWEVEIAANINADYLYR
T3 sequence (Q9TE80 1-355): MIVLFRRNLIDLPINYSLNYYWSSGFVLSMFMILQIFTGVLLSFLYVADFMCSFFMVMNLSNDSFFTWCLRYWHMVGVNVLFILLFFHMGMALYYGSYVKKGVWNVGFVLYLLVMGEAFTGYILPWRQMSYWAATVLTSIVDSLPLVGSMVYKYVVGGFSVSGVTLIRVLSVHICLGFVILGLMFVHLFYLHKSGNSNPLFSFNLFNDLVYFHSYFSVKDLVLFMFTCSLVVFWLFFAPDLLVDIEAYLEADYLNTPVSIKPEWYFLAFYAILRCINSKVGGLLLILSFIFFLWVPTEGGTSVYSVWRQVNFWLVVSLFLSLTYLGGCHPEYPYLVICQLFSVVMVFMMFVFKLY
T3 sequence (Q9GP40 whole entry partner): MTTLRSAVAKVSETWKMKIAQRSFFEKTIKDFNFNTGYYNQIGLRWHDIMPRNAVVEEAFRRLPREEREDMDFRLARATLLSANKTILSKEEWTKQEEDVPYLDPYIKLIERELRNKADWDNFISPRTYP
T3 sequence (A0A1Z4EAV8 26-648 partner): as the sequence (A0A1Z4EAV8 26-648) above
T3 sequence (A0A1Z4EAX0 21-272 partner): as the sequence (A0A1Z4EAX0 21-272) above
T3 sequence (A0A1Z4EAX1 53-194 partner): as the sequence (A0A1Z4EAX1 53-194) above
T3 sequence (A0A1Z4EAW8 47-153 partner): as the sequence (A0A1Z4EAW8 47-153) above

With `Cc1cc(/C=C/c2ccc3cc(N(C)C)ccc3[n+]2C)c(C)n1-c1ccccc1` [pyrvinium pamoate], the IC50 in test [1] was 11 ± 0.3 µM; in test [2] (setting [4]), over 30 µM; in test [3] (setting [4]), over 30 µM.
With `C[C@@H]1CC[C@H]2[C@@H](C)C(=O)O[C@@H]3O[C@@]4(C)CC[C@@H]1[C@]32OO4` [artemisinin], the IC50 in test [1], in test [2] (setting [5]) and in test [3] (setting [5]) was over 40 µM throughout.
